The text below walks through data of paper PMC7663272, “Discovery of Tricyclic Pyranochromenone as Novel Bruton’s Tyrosine Kinase Inhibitors with In Vivo Antirheumatic Activity” (International Journal of Molecular Sciences, 2020).

One experiment deals with T1, BTK-C481S (Homo sapiens, UniProt Q06187, C481S).
T1 construct: purchased Reaction Biology Corporation
The experiment can be described thus: HotSpot kinase enzymatic assay, mutant BTK. The class given is biochemical. The conditions noted are these: vs negative control (DMSO), mean of two separate experiments. An excerpt: To confirm the role of the electrophilic warhead groups, the acryloyl group of compound 8 was replaced with methylacryloyl (11) and propionyl (12) groups, which are less electrophilic or lack an electrophilic feature. […] The significant difference in the inhibitory activity of compounds 8 and 12 could explain the critical role of the acryloyl moiety in potentiating the BTK inhibitory activity of compound 8. […] It was also confirmed by comparison of the inhibitory activity of the representative compounds (8–10) with electrophilic warheads against wild-type BTK (BTK-wt) and mutant BTK (BTK-C481S).
(§1) Kinase enzymatic assays for BTK, BMX, TXK, TEC, ITK, EGFR, ERBB2, ERBB4, and JAK3 were performed at Reaction Biology Corporation (www.reactionbiology.com, Malvern, PA, USA) using the HotSpot assay platform. Briefly, specific kinase/substrate pairs and the required cofactors were prepared in a reaction buffer comprising 20 mM HEPES (pH 7.5), 10 mM MgCl2, 1 mM EGTA, 0.02% Brij35, 0.02 mg/mL BSA, 0.1 mM Na3VO4, 2 mM DTT, and 1% DMSO. The compounds were added to the reaction mixture and allowed to incubate. Approximately 20 min later, a mixture of ATP (Sigma-Aldrich, St. Louis, MO, USA) and ^33P ATP (PerkinElmer, Waltham, MA, USA) was added to the reaction mixture at a final concentration of 10 μM. The reactions were performed at room temperature for 120 min; subsequently, the reactions were spotted onto P81 ion exchange filter papers (Whatman Inc., Maidstone, UK). Any unbound phosphate was removed by thoroughly washing the filter papers with 0.75% phosphoric acid. […] GraphPad Prism software was used to obtain the IC50 values and perform curve fitting.

The target in another experiment is T2, BTK-wt (Homo sapiens, UniProt Q06187).
T2 construct: purchased Reaction Biology Corporation
Nature of the experiment: HotSpot kinase enzymatic assay, BTK-wt. Type of experiment: biochemical. Particulars: for inhibition at 10 µM: vs negative control (DMSO), mean of two separate experiments, NA = not active at 10 µM, read-out: % Inhibition (10 µM) BTK-wt; for IC50: HotSpot assay, 10 μM ATP, GraphPad Prism. As for the experimental part: as §1, with “UK).” for “UK). Any unbound phosphate was removed by thoroughly washing the filter papers with 0.75% phosphoric acid.”

The next experiment relates to BTK. On the set-up: method as in not given. The conditions noted are these: reported tricyclic BTK inhibitors, printed in Figure 2b; ref not given; cited from earlier work.
The subject of experiment [1] is collagen-induced arthritis (CIA). Nature of the experiment: Murine model of collagen-induced arthritis (CIA). Type of experiment: in vivo. Particulars: mice, 0.3 mg/kg, daily oral; t-test. The procedure: The in vivo efficacy of compound 8 was evaluated in a murine inflammatory model of collagen-induced arthritis (CIA). The study included four groups: a vehicle-treated control group and three treatment groups. The treatment groups comprised a dexamethasone-treated group, in which dexamethasone served as the positive control, and two treatment groups, in which animals were treated with compound 8 at doses of 10 and 50 mg/kg. Compound 8 was administered once daily for 15 days by oral gavage, and the in vivo efficacy was evaluated by measuring the clinical score and foot volume. […] There were no significant changes in the body weights of animals in all the treatment groups (data not shown) during treatment.
The animal study was approved by the Institutional Animal Care and Use Committee (IACUC) of the Korea Research Institute of Bioscience and Biotechnology on March 15, 2017, under approval number KRIBB-AEC-17090. Male DBA1/JNCrli mice (7 weeks old) were purchased from Japan CRL, Inc. The mice were housed in specific pathogen-free (SPF) conditions and were allowed ad libitum access to food and water. After 7 days of acclimatization, the mice were immunized with 0.05 mL of a type II collagen emulsion (Hooke Kit^TM Chicken Collagen, Cat. No. EK-0210 from Hooke) and Freund’s complete adjuvant by subcutaneous injection at 1.5 cm distal from the base of the tail. After 21 days, the immunized mice were administered a booster injection with 0.05 mL of a type II collagen emulsion (Hooke Kit^TM Chicken Collagen, Cat. No. EK-0211 from Hooke) and Freund’s incomplete adjuvant. The emulsions were prepared according to the manufacturer’s instructions. On day 21, the mice with CIA were randomized into four groups. The animals in the four groups were administered either 0.3 mg/kg dexamethasone (n = 5), 10 mg/kg compound 8 (n = 5), 50 mg/kg compound 8 (n = 5), or vehicle (n = 5), once a day, for […], orally. The vehicle, in which all test compounds were suspended, comprised DMAC (10%), Tween 80 (10%), and DW (80%). Clinical arthritis scores and body weights were assessed three times per week for 15 days. The paw volumes were measured using a LE7500 plethysmometer (Panlab, Barcelona, Spain) on days 0 and 42.

Entries after “also recorded” stand apart in the source; their conditions may differ. Some results are limits rather than exact numbers.

T2 sequence (Q06187 whole entry): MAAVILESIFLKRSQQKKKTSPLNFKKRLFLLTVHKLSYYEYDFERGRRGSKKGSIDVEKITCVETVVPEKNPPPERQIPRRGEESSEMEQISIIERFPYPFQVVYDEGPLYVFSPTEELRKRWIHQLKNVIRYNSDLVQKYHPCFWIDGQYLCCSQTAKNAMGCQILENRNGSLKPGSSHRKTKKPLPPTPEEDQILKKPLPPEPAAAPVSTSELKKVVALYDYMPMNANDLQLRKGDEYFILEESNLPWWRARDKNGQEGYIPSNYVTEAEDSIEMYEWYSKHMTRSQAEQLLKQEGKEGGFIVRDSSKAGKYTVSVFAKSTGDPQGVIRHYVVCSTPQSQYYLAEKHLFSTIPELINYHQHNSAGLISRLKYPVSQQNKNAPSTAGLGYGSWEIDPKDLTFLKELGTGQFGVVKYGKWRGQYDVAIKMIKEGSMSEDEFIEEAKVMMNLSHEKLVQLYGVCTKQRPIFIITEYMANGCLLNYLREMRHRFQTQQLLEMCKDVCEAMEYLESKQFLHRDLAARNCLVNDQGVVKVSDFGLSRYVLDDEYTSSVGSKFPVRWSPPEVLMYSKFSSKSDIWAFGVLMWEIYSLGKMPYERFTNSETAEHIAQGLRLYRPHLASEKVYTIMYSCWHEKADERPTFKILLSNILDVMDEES
T1 sequence (Q06187 whole entry C481S): as the sequence (Q06187 whole entry) above, with C481S counted along it

Usually inhibition stands for the percentage by which the read-out fell short of the control. What is called IC50 is the point on the concentration scale where inhibition reaches its midpoint. Turning to `CC1(C)Oc2cc3oc(=O)ccc3cc2C[C@@H]1OC(=O)CCl` [Compound 10, (7S)-(+)-Chloroacetic acid, 8,8-dimethyl-2-oxo-6,7-dihydro-2H,8H-pyrano [3,2-g]chromen-7-ylester], the inhibition at 10 µM at BTK-C481S was found to be 18.6%. For the same compound, on BTK-wt, the inhibition at 10 µM was 99.2% and half-maximal inhibition (IC50) was put at 0.5 µM.

Consider `C=C(C)C(=O)O[C@H]1Cc2cc3ccc(=O)oc3cc2OC1(C)C` [Compound 11, (7S)-(+)-2-Methylacrylic acid, 8,8-dimethyl-2-oxo-6,7-dihydro-2H,8H-pyrano[3,2-g]chromen-7-yl ester], for which, at BTK-wt, the “BTK inhibitory activity (in words)” value is “completely diminished” and the IC50 is over 10 µM.

In the case of `C/C=C/C(=O)O[C@H]1Cc2cc3ccc(=O)oc3cc2OC1(C)C` [Compound 3, (7S)-(+)-But-2-enoic acid, 8,8-dimethyl-2-oxo-6,7-dihydro-2H,8H-pyrano[3,2-g]chromen-7-ylester], at BTK-wt, the “BTK inhibitory activity (in words)” value is given as “minimal inhibitory activity”, the inhibition at 10 µM amounted to 11.3% and the IC50 was over 10 µM.

Regarding `CCC(=O)O[C@H]1Cc2cc3ccc(=O)oc3cc2OC1(C)C` [Compound 12, (7S)-(+)-Propionic acid, 8,8-dimethyl-2-oxo-6,7-dihydro-2H,8H-pyrano [3,2-g]chromen-7-ylester], at BTK-wt, the “BTK inhibitory activity (in words)” value was “completely diminished; also recorded: BTK inhibitory activity was lost” and the IC50 was over 10 µM.

As to `Cc1c(-c2c(F)cc(C(N)=O)c3[nH]c4c(c23)CC[C@H](C(C)(C)O)C4)cccc1-n1c(=O)c2cccc(F)c2n(C)c1=O` [BMS-986142], in the experiment with BTK, the IC50 is 0.0005 µM.

On to `C[C@@H]1C[C@H]2[C@@H]3CCC4=CC(=O)C=C[C@]4(C)[C@@]3(F)[C@@H](O)C[C@]2(C)[C@@]1(O)C(=O)CO` [dexamethasone, reference compound], for which the “clinical scores vs control” value in experiment [1] is “differed significantly from those with the control”.

As for `CC1(C)Oc2cc3oc(=O)ccc3cc2C[C@@H]1O` [Compound 2, S-(+)-Decursinol], on BTK-wt, the “BTK inhibitory activity (in words)” value is “inactive”, the inhibition at 10 µM amounted to 7.7% and the IC50 was over 10 µM.

As for `CC1(C)Oc2cc3oc(=O)ccc3cc2C[C@@H]1OC(=O)/C=C/c1ccccc1` [Compound 5, (7S)-(+)-trans-Cinnamic acid, 8,8-dimethyl-2-oxo-6,7-dihydro-2H,8H-pyrano[3,2-g]chromen-7-yl ester], on BTK-wt, the “BTK inhibitory activity (in words)” value is listed as “no BTK inhibitory activity” and the IC50 is over 10 µM.

In the case of `CC#CC(=O)O[C@H]1Cc2cc3ccc(=O)oc3cc2OC1(C)C` [Compound 7, (7S)-(+)-But-2-yonic acid, 8,8-dimethyl-2-oxo-6,7-dihydro-2H,8H-pyrano[3,2-g]chromen-7-ylester], on BTK-wt, the “BTK inhibitory activity (in words)” value is given as “relatively low BTK inhibitory activity”, the inhibition at 10 µM is 34.5% and the IC50 was found to be 7 µM.

In the case of `CC(C)=CC(=O)O[C@H]1Cc2cc3ccc(=O)oc3cc2OC1(C)C` [Compound 1, Decursin], at BTK-wt, the “BTK inhibitory activity (in words)” value is given as “weak inhibitory activity”, the inhibition at 10 µM was determined as 32% and the IC50 was over 10 µM.

`C=CS(=O)(=O)O[C@H]1Cc2cc3ccc(=O)oc3cc2OC1(C)C` [Compound 9, (7S)-(+)-Ethenesulfonic acid, 8,8-dimethyl-2-oxo-6,7-dihydro-2H,8H-pyrano [3,2-g]chromen-7-yl ester]: the inhibition at 10 µM at BTK-C481S stood at 15.8%. Further, on BTK-wt, the inhibition at 10 µM was 95.8% and the IC50 is 0.9 µM.

Consider `CC1(C)Oc2cc3oc(=O)ccc3cc2C[C@@H]1OC(=O)/C=C/c1ccc(F)cc1` [Compound 6, (7S)-(+)-trans-4-Fluorocinnamic acid, 8,8-dimethyl-2-oxo-6,7-dihydro-2H,8H-pyrano[3,2-g]chromen-7-yl ester], for which, on BTK-wt, the “BTK inhibitory activity (in words)” value is “no BTK inhibitory activity” and the IC50 is over 10 µM.

In the case of `CC1(C)Oc2cc3oc(=O)ccc3cc2C[C@@H]1OC(=O)/C=C/CBr` [Compound 4], on BTK-wt, the “BTK inhibitory activity (in words)” value is recorded as “minimal inhibitory activity”, the inhibition at 10 µM worked out at 20.3% and the IC50 is over 10 µM.
